Reference: ChEMBL document CHEMBL1201862, “PubChem BioAssay data set” (2004)
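1) Cells in 96-well plates. 2) Compound, 48 h, 5 concentrations. 3) Linear interpolation between surrounding doses. 4) Unreached endpoint = highest concentration. At the GI50, growth is halved.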 The source made the active and inactive calls. Cut-off read from the data, not from the text of the source: active = GI50 up to about 1.1 µM and inactive = higher.

Assays:
Test in all cases: NCI anticancer screen, dose series, 48 h
SNB-78 = test system: SNB-78
KM-20L2 = test system: KM-20L2
DMS-114 = test system: DMS-114
XF498 = test system: XF498
DMS-273 = test system: DMS-273
LXFL 529 = test system: LXFL 529
HOP-18 = test system: HOP-18
DLD-1 = test system: DLD-1
RXF 631 = test system: RXF 631

Row | SMILES | GI50 (SNB-78) | GI50 (KM-20L2) | GI50 (DMS-114) | GI50 (XF498) | GI50 (DMS-273) | GI50 (LXFL 529) | GI50 (HOP-18) | GI50 (DLD-1) | GI50 (RXF 631)
1 | O=C(c1ccc(F)cc1)c1cccc(C(=O)c2ccc(F)cc2)n1 | 17.7 µM (inactive) | > 100 µM (inactive) | 23.9 µM (inactive) | 20.9 µM (inactive) | 26.3 µM (inactive) | > 79.1 µM (inactive) | 53.2 µM (inactive) | > 100 µM (inactive) | 
2 | CC(=O)CCCCCCCCCCCC[C@@H]1CC[C@H](C)[C@H](O)N1 | > 100 µM (inactive) | 65.2 µM (inactive) | > 100 µM (inactive) | > 100 µM (inactive) | > 100 µM (inactive) | > 100 µM (inactive) | > 100 µM (inactive) | > 100 µM (inactive) | 
4 | CN1CCc2c1nc(-c1ccc([N+](=O)[O-])cc1)c1c2N(C)CC1 | > 100 µM (inactive) | > 100 µM (inactive) | 32 µM (inactive) | > 100 µM (inactive) |  | > 100 µM (inactive) | 0.16 µM (active) | 46.3 µM (inactive) | > 100 µM (inactive)
5 | Cc1c(-c2coc(-c3ccccc3)n2)c(=O)n(-c2ccccc2)n1C | > 100 µM (inactive) | > 100 µM (inactive) | 36.6 µM (inactive) | 23 µM (inactive) | > 100 µM (inactive) | 58.1 µM (inactive) |  | > 100 µM (inactive) | 
6 | COC(=O)C[C@](O)(CCCC(C)(C)O)C(=O)O[C@@H]1C(OC)=C[C@]23CCCN2CCc2cc4c(cc2[C@H]13)OCO4 [OMACETAXINE MEPESUCCINATE] | 0.0682 µM (active) | 0.0192 µM (active) | 0.0047 µM (active) | 0.00914 µM (active) | 0.00679 µM (active) |  | 0.06 µM (active) | 0.0231 µM (active) | 
7 | COc1cc(/C=C(\OC(C)=O)c2ccc3c(c2)OCO3)cc(OC)c1OC | 35.5 µM (inactive) | 31.1 µM (inactive) | 13.4 µM (inactive) | 14 µM (inactive) | 14.8 µM (inactive) | 14.4 µM (inactive) | 20.9 µM (inactive) | 18.6 µM (inactive) | > 10 µM (inactive)
8 | COc1cccc(NC(=S)Nn2c(C)nc3ccccc3c2=O)c1 |  |  | > 100 µM (inactive) |  | > 100 µM (inactive) | > 100 µM (inactive) | 83.6 µM (inactive) | > 100 µM (inactive) | 
9 | Cc1cc2c(=O)n(-c3ccc(F)cc3)c(C)nc2c(C(=O)O)c1C | > 100 µM (inactive) | > 100 µM (inactive) | > 100 µM (inactive) |  | > 100 µM (inactive) | > 100 µM (inactive) | > 100 µM (inactive) | > 100 µM (inactive) | 
10 | Cc1n(CC(C)C)c2c([n+]1C)C(=O)c1ccccc1C2=O | 0.403 µM (active) | 0.0383 µM (active) | < 0.0161 µM (active) | 0.252 µM (active) | < 0.0484 µM (active) | < 0.0375 µM (active) | 0.565 µM (active) | 0.0813 µM (active) | 
11 | CCN(CCCl)CCNc1c2ccccc2nc2ccc(OC)cc12 | 0.891 µM (active) | 0.448 µM (active) | 0.675 µM (active) | 0.891 µM (active) | 0.294 µM (active) | 0.237 µM (active) | 2.7 µM (inactive) | 0.46 µM (active) | 0.425 µM (active)
12 | CC(C)c1cccc(C(C)C)c1NC(=O)C(=O)C(C(=O)c1ccccc1-c1ccccc1)C1OC(=O)c2ccccc21 (configuration not stated) | 21.9 µM (inactive) | 21.5 µM (inactive) | 17.7 µM (inactive) | 13.3 µM (inactive) | 22.9 µM (inactive) | 17.7 µM (inactive) |  |  | 
13 | CCOC1CC2OC(=O)C1C=C2C(=O)OC (configuration not stated) | 37.2 µM (inactive) | 55.6 µM (inactive) | 20.4 µM (inactive) | 23.6 µM (inactive) |  | 15.5 µM (inactive) | 21.1 µM (inactive) | 23 µM (inactive) | 
14 | CCN(CC)C(=O)C(C)n1cc(C)c(=O)[nH]c1=O (configuration not stated) | > 100 µM (inactive) | > 100 µM (inactive) | > 100 µM (inactive) | > 100 µM (inactive) | > 100 µM (inactive) | > 100 µM (inactive) |  |  | 
